Entries after “also recorded” stand apart in the source; their conditions may differ.
How the values were obtained:
[1] = system: primary NHBE; conditions: uninfected primary NHBE, different doses titrated, Fig.1C
[2] = system: SARS-CoV-2 infected NHBE
[3] = system: ACE2; format: cell-based, human
[4] = system: TMPRSS2; format: cell-based, human; conditions: Fig.4E
[5] = system: primary NHBE; format: cell-based, human
[6] = system: SARS-CoV-2; format: cell-based

Row | Structure (SMILES) | potential cytotoxicity (LDH) [1] | infection-mediated cytotoxicity (LDH), rescue ([2]; 1 µM icatibant added 6h post-inoculation, Fig.5F) | infection-mediated cytotoxicity (LDH) ([2]; 24h pre-treatment 1 µM icatibant, then 24h SARS-CoV-2 inoculation, n=12, Fig.5E) | ACE2 gene expression (microarray, confirmed by qPCR) [3] | ACE2 gene expression (qPCR) [3] | TMPRSS2 gene expression (microarray, confirmed by qPCR) ([4]; 10 µM hydrocortisone, uninfected cells) | TMPRSS2 gene expression (qPCR) ([4]; 24h pre-treatment 10 µM hydrocortisone, uninfected and virus-infected NHBE, with or without IFN-γ) | genes that may support the cytokine storm (gene expression) [5] | type I interferons IFNB1 and IFNE and type III interferons such as IFNL3 (gene expression) [5] | APOBEC3A gene expression ([5]; Fig.4A) | known and potential virus entry receptors (gene expression) ([5]; Fig.4C) | genes upregulated by SARS-CoV-2-infection, but downregulated by drug ([5]; Venn diagram, Fig.3E) [genes] | genes reduced by SARS-CoV-2-infection, but increased by drug ([5]; Venn diagram, Fig.7C) [genes] | global gene expression changes ([5]; icatibant 1 µM or hydrocortisone 10 µM, volcano plots, Fig.3D) | antiviral epithelial response (gene expression) ([5]; in general, Fig.4A) | antiviral response genes significantly downregulated ([5]; over all conditions, Fig.8A) | transcripts regulated by both, hydrocortisone and icatibant ([5]; overlap of the two drugs, majority long non-coding RNAs, Fig.3E) [transcripts] | virus titers / infectious viral particles in supernatant (plaque forming units) [6]
1 | NC(N)=NCCC[C@@H](N)C(=O)N[C@@H](CCCN=C(N)N)C(=O)N1CCC[C@H]1C(=O)N1C[C@H](O)C[C@H]1C(=O)NCC(=O)N[C@@H](Cc1cccs1)C(=O)N[C@@H](CO)C(=O)N1Cc2ccccc2C[C@@H]1C(=O)N1[C@H](C(=O)N[C@@H](CCCN=C(N)N)C(=O)O)C[C@@H]2CCCC[C@@H]21 [icatibant] | no toxic effects in NHBE cell cultures, but even exhibits a cell-protecting effect | significantly reduced | significantly reduced | – | – | – | – | – | – | – | – | – | – | – | – | – | – | –
2 | C[C@]12CCC(=O)C=C1CC[C@@H]1[C@@H]2[C@@H](O)C[C@@]2(C)[C@H]1CC[C@]2(O)C(=O)CO [hydrocortisone] | – | – | – | upregulation of ACE2 and TMPRSS2 on the transcriptional level of uninfected cells | did not change | upregulation of ACE2 and TMPRSS2 on the transcriptional level of uninfected cells | still enhanced TMPRSS2 expression in both, uninfected and virus-infected NHBE | not significantly influenced | even slightly enhanced | even increased | rather enhances receptors, like TMPRSS2, 11B and 11E proteins | 300 | 198 | almost balanced relationship between suppression and induction of gene expression | changes of the antiviral epithelial response were not induced | significantly reduced DNAJC3, CREBZF, GPAM, BNIP3L and FAM111A | 86 | no adverse effect on the virus titers; also recorded: did not reduce virus titers
